Measurements from ChEMBL document CHEMBL5038621, “Development of anti-inflammatory peptidomimetics based on the structure of human alpha1-antitrypsin” (2022).
Activity calls are given as the source filed them. No cut-off for these calls is given here. Peptide text beside a SMILES is read from it.

Experiments:
[1] = Antiinflammatory activity against LPS-stimulated ThG elicited C57BL/6 mouse peritoneal macrophages assessed as inhibition of LPS-induced IL6 production measured after 24 hrs by Griess assay; format: functional, Peritoneal macrophage; design: concentration or dose not given beside the values
[2] = Antiinflammatory activity against LPS-stimulated ThG elicited C57BL/6 mouse peritoneal macrophages assessed as inhibition of LPS-induced NO production measured after 24 hrs by Griess assay; format: functional, Peritoneal macrophage; design: concentration or dose not given beside the values
[3] = Antiinflammatory activity against LPS-stimulated ThG elicited C57BL/6 mouse peritoneal macrophages assessed as inhibition of LPS-induced TNFalpha production measured after 24 hrs by ELISA; format: functional, Peritoneal macrophage; design: scale not given: the % may be the effect or the level left
[4] = target: T1, Neutrophil elastase (Homo sapiens) (UniProt P08246); assay: Inhibition of neutrophil elastase (unknown origin) at 0.96 to 96.15 uM; conditions: dose 0.96-96.15 µM
T1 sequence (whole entry): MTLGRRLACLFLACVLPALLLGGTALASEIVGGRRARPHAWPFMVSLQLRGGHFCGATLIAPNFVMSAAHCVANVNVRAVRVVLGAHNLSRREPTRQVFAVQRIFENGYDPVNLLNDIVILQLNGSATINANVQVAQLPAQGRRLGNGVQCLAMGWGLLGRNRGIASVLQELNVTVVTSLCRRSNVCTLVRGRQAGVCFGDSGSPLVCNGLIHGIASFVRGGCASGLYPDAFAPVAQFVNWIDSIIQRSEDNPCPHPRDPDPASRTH

[5] = Antiinflammatory activity against LPS-stimulated ThG elicited C57BL/6 mouse peritoneal macrophages assessed as reduction in cell surface CD40 expression measured after 24 hrs by Flow cytometry analysis; format: functional, Peritoneal macrophage; design: concentration or dose not given beside the values
[6] = Antiinflammatory activity against LPS-stimulated ThG elicited C57BL/6 mouse peritoneal macrophages assessed as reduction in cell surface CD86 expression measured after 24 hrs by Flow cytometry analysis; format: functional, Peritoneal macrophage; design: concentration or dose not given beside the values
Mus musculus [7] = assay: Antiinflammatory activity in LPS-induced C57BL/6 mouse peritonitis model assessed as reduction in LPS-induced serum TNF alpha levels at 50 ug, ip treated for 3 hrs followed by LPS stimulation and measured after 24 hrs post stimulation by ELISA; format: functional; design: scale not given: the % may be the effect or the level left; conditions: dose 50 µg
Mus musculus [8] = assay: Antiinflammatory activity in LPS-induced C57BL/6 mouse peritonitis model assessed as reduction in CD40 protein expression at 50 ug, ip treated for 3 hrs followed by LPS stimulation and measured after 24 hrs post stimulation by flow cytometry; format: functional; design: scale not given: the % may be the effect or the level left; conditions: dose 50 µg
Mus musculus [9] = assay: Antiinflammatory activity in LPS-induced C57BL/6 mouse peritonitis model assessed as increase in Gr1 cell population at 50 ug, ip treated for 3 hrs followed by LPS stimulation and measured after 24 hrs post stimulation by flow cytometry; format: functional; conditions: dose 50 µg
Mus musculus [10] = assay: Antiinflammatory activity in LPS-induced C57BL/6 mouse peritonitis model assessed as reduction in LPS-induced serum IL-6 levels at 50 ug, ip treated for 3 hrs followed by LPS stimulation and measured after 24 hrs post stimulation by ELISA; format: functional; design: scale not given: the % may be the effect or the level left; conditions: dose 50 µg
Mus musculus [11] = assay: Antiinflammatory activity in LPS-induced C57BL/6 mouse peritonitis model assessed as increase in F4/80 peritoneal cell population at 50 ug, ip treated for 3 hrs followed by LPS stimulation and measured after 24 hrs post stimulation by flow cytometry; format: functional; conditions: dose 50 µg
Mus musculus [12] = assay: Antiinflammatory activity in LPS-induced C57BL/6 mouse peritonitis model assessed as reduction in CD86 protein expression at 50 ug, ip treated for 3 hrs followed by LPS stimulation and measured after 24 hrs post stimulation by flow cytometry; format: functional; design: scale not given: the % may be the effect or the level left; conditions: dose 50 µg

Row | Compound | inhibition [4] | Activity [1] | Activity [2] | Activity [5] | Activity [6] | also measured
1 | COc1cccc(C(=O)NC(Cc2c[nH]cn2)C(=O)NCc2ccc(C(N)=O)cc2)c1OC (configuration not stated) | – | 46.3% | 29.5% | – | – | –
2 | NC(=O)CCC(NC(=O)C1Cc2nc[nH]c2CN1)C(N)=O (configuration not stated) | – | 46.3% | – | – | – | Activity [3]: 24.4%
3 | NC(=O)c1ccc(CNC(=O)C(Cc2c[nH]cn2)NCc2ccc(O)cc2)cc1 (configuration not stated) | – | 46.3% | – | 49.3% | 20.4% | –
4 | COc1cccc(C(=O)NC(Cc2c[nH]cn2)C(=O)NC(C(N)=O)c2ccccc2)c1OC (configuration not stated) | – | 46.3% | – | – | – | –
5 | NC(=O)c1ccc(CNC(=O)C(Cc2c[nH]cn2)NCc2cccc(O)c2)cc1 (configuration not stated) | – | 46.3% | – | – | – | –
6 | NC(=O)C(NC(=O)C(Cc1c[nH]cn1)NCc1ccc(O)cc1)c1ccccc1 (configuration not stated) | – | 33.5% | 38.7% | 27.4% | 16.4% | Activity (Mus musculus [7]): 73.4%; Activity [3]: 19.9%; Activity (Mus musculus [8]): 47.3%; Activity (Mus musculus [9]): 48.4%; Activity (Mus musculus [10]): 80.6%; Activity (Mus musculus [11]): 130.4%; Activity (Mus musculus [12]): 45.6%
7 | CC(=O)N[C@@H](CC(C)C)C(=O)N[C@@H](CCC(=O)O)C(=O)NCC(=O)N1CCC[C@H]1C(=O)N[C@@H](CCCCN)C(=O)N[C@@H](C)C(N)=O (Ac-LEGPKA-NH2) | inactive | – | – | – | – | –
8 | CC(=O)N[C@@H](CC(C)C)C(=O)N1CCC[C@H]1C(=O)N[C@@H](CC(N)=O)C(=O)N[C@@H](CO)C(=O)N[C@@H](CC(C)C)C(=O)NCC(=O)N[C@@H](CC(N)=O)C(N)=O (Ac-LPNSLGN-NH2) | inactive | – | 70.3% | – | 24.7% | –
9 | CC[C@H](C)[C@H](NC(=O)[C@H](CCC(=O)O)NC(=O)[C@H](CC(C)C)NC(=O)[C@H](CCCCN)NC(=O)[C@H](CCCCN)NC(=O)[C@H](CS)NC(=O)[C@H](Cc1c[nH]cn1)NC(=O)[C@H](CCC(N)=O)NC(C)=O)C(=O)N[C@@H](CCCCN)C(N)=O (Ac-QHCKKLEIK-NH2) | inactive | – | – | – | – | –

Second part, led by results:

Row | inhibition [4] | Compound | Activity [1] | Activity [2] | Activity [5] | Activity [6] | also measured
10 | inactive | CC(=O)N[C@@H](Cc1c[nH]cn1)C(=O)N[C@@H](CS)C(=O)N[C@@H](CCCCN)C(=O)N[C@@H](CCCCN)C(=O)N[C@@H](CC(C)C)C(=O)NCC(=O)N[C@@H](CCCCN)C(=O)N[C@@H](Cc1ccccc1)C(N)=O (Ac-HCKKLGKF-NH2) | – | – | – | – | –
11 | inactive | CC[C@H](C)[C@H](NC(=O)[C@H](CO)NC(=O)[C@H](CC(C)C)NC(=O)[C@H](CC(C)C)NC(=O)[C@@H](NC(=O)CNC(=O)[C@@H](NC(=O)[C@H](C)NC(C)=O)[C@@H](C)O)[C@@H](C)O)C(=O)N[C@@H](CC(N)=O)C(N)=O (Ac-ATGTLLSIN-NH2) | – | – | – | – | –
12 | inactive | CC(=O)N[C@@H](CC(=O)O)C(=O)N[C@@H](CC(C)C)C(=O)N[C@@H](CCCCN)C(=O)N[C@@H](CCCCN)C(=O)N[C@@H](CC(=O)O)C(=O)N[C@@H](CCCCN)C(=O)N[C@@H](C)C(N)=O (Ac-DLKKDKA-NH2) | – | – | – | – | –
13 | inactive | CC(=O)N[C@@H](CCC(N)=O)C(=O)N[C@@H](Cc1ccccc1)C(=O)N[C@@H](Cc1ccccc1)C(=O)N[C@@H](CCCCN)C(=O)NCC(=O)N[C@@H](CCCCN)C(N)=O (Ac-QFFKGK-NH2) | – | 51.8% | 41.6% | 35.2% | –
14 | inactive | CC(=O)N[C@@H](Cc1ccc(O)cc1)C(=O)N[C@@H](CCCNC(=N)N)C(=O)N[C@@H](C)C(=O)N[C@@H](Cc1c[nH]cn1)C(=O)N[C@@H](CCC(N)=O)C(=O)NCC(=O)N[C@@H](CCC(=O)O)C(N)=O (Ac-YRAHQGE-NH2) | 52.2% | 66.9% | 55.3% | 52.4% | –
15 | inactive | CC[C@H](C)[C@H](NC(=O)[C@@H](NC(=O)[C@H](Cc1ccc(O)cc1)NC(=O)[C@H](CC(C)C)NC(=O)[C@H](Cc1ccccc1)NC(=O)[C@H](CC(C)C)NC(C)=O)C(C)C)C(=O)N[C@@H](Cc1c[nH]cn1)C(N)=O (Ac-LFLYVIH-NH2) | 38.4% | 57.6% | 45.7% | – | –
16 | inactive | CC(=O)N[C@@H](Cc1ccccc1)C(=O)N[C@@H](CCCNC(=N)N)C(=O)N[C@@H](Cc1ccc(O)cc1)C(=O)N[C@@H](CC(C)C)C(=O)N[C@H](C(=O)N[C@@H](CC(C)C)C(=O)N[C@@H](Cc1ccccc1)C(N)=O)C(C)C (Ac-FRYLVLF-NH2) | – | – | – | – | –
